Reference: patent publication US8445509B2, “Fused heterocyclic derivatives and use thereof” (Takeda Pharmaceutical Company Limited, priority 2008, dated 2013)

How the values were obtained:
MKN-45 cells = experiment: Antitumor test, MKN-45 transplanted nude mouse; type: in vivo, nude mouse (BALB/c nu/nu); conditions: orally, 14 consecutive days
Description: (§1) Cancer cells were cultured in a culture medium containing 10% bovine fetal serum in an incubator at 37° C., 5% CO2. MKN-45 cells were treated with trypsin/EDTA and isolated. MKN-45 and MV-4-11 cells were washed with HBSS (HANK's Balanced Saline Solution). When MKN-45 cells were transplanted, they were adjusted with HBSS to a cell density of 1.2×10^8 cells/mL, and transplanted by subcutaneous injection of 0.05 mL of a mixed suspension (3×10^6 cells) of the cell suspension and the same amount of Matrigel into the abdomen of 6 or 7-week-old female nude mouse (BALB/c nu/nu, CLEA Japan, Inc.). When MV-4-11 cells were transplanted, they were adjusted with HESS to a cell density of 1.2×10^8 cells/mL, and transplanted by subcutaneous injection of 0.05 mL of a mixed suspension (3×10^6 cells) of the cell suspension and the same amount of Matrigel into the abdomen of 7-week-old female nude mouse (BALB/c nu/nu, CLEA Japan, Inc.). When the average tumor volume reached 100-250 mm^3, the mice were grouped, and various doses of test substance were orally administered for 14 consecutive days starting from the next day. The length of the major axis and the length of the minor axis of the tumor were measured over time and the tumor volume was calculated by tumor volume=major axis length×minor axis length×minor axis length×0.5. The ratio of an increase in the average tumor volume of the control group to an increase in the average tumor volume of the drug administration group was taken as the tumor growth rate (%) of the drug administration group. Table 5 showned MKN-45 tumor growth rate (%) and table 6 showned MV-4-11 tumor growth rate (%).

MV-4-11 cells = experiment: Antitumor test, MV-4-11 transplanted nude mouse; type: in vivo, nude mouse (BALB/c nu/nu); conditions: MV-4-11, dose 2 mg/kg, orally, 14 consecutive days
Description: as §1

[1] = system: Human umbilical vein-derived vascular endothelial cells (HUVEC); experiment: Vascular endothelial cell proliferation inhibitory test (VEGF-stimulated HUVEC); type: cell-based; conditions: 120 h, 5 days of culture with VEGF
Description: Human umbilical vein-derived vascular endothelial cells (HUVEC purchased from KURABO […] LTD.) were cultured in an incubator at 37° C., 5% carbon dioxide in a vascular endothelial cell medium (Invitrogen) containing 3% bovine fetal serum and 2.5 ng/mL basic fibroblast growth factor. To be specific, HUVEC was suspended in a vascular endothelial cell medium containing the aforementioned 3% bovine fetal serum and plated on a 96 well flat bottom plate by 50 μL (3000 cells) each well. After culture overnight, various concentrations of the test substance and 120 ng/mL of vascular endothelial growth factor (VEGF) were dissolved in a vascular endothelial cell medium containing 3% bovine fetal serum and added to each well by 50 μL. After 5 days of culture, a Cell counting kit-8 reagent (DOJINDO LABORATORIES) was added to each well by 10 μL, and the mixture was reacted in an incubator at 37° C., 5% carbon dioxide for 2-3 hr. The absorbance at 450 nm was measured by a microtiter plate reader and the cell proliferation inhibitory activity was determined. Using the absorbance with addition of a test substance at each concentration and based on the nonlinear least-squares analysis using a logistic curve of SAS system NLIN procedure, the concentration of the test substance (IC50 value) necessary for showing 50% of the value obtained without addition of the test substance was calculated.

[2] = system: Human gastric cancer cell line MKN-45; experiment: Human gastric cancer cell line MKN-45 growth inhibitory test; type: cell-based; conditions: MKN-45, 72 h
Description: Human gastric cancer cell line MKN-45 (RIKEN BioResource Center) was cultured in RPMI1640 (Invitrogen) containing 10% bovine fetal serum in a gas incubator at 37° C., 5% CO2. MKN-45 cells were treated with trypsin/EDTA and recovered. The cells were suspended in RPMI1640 containing 0.3% bovine fetal serum, plated on a 96 well flat bottom plate at a cells density of 3000 cells/50 μL per well. After culturing overnight, various concentrations of test substance were dissolved in RPMI1640 containing 0.3% bovine fetal serum and added to each well by 50 μL. After culture for 3 days, a Cell counting kit-8 reagent (DOJINDO LABORATORIES) was added to each well by 10 μL, and reacted in an incubator at 37° C., 5% CO2 for 2-3 hr. After the reaction, the absorbance of each well at 450 nm was measured by a microtiter plate reader. The concentration of a test substance necessary for inhibiting the growth by 50% (IC50 value) was calculated using a cell proliferation rate with addition of the test substance at each concentration and according to the nonlinear regression analysis using GraphPad Prism [Sigmoidal dose response (variable slope)]. The cell proliferation rate (%) with addition of a test substance at each concentration was calculated by the following formula. As a positive control (100% growth), dimethyl sulfoxide was added instead of a test substance. As a negative control (0% growth), the compound of Reference Example 136 (WO2005/030140, Entry 104), which is a known c-Met inhibitor, was added in large excess (10 μM) instead of a test substance.

[3] = target: T1, FLT3 intracellular domain protein (Homo sapiens, UniProt P36888); experiment: Fms Like Tyrosine Kinase 3 (FLT3) kinase inhibitory activity (AlphaScreen); type: biochemical
T1 construct: 7.5 ng/ml of FLT3 intracellular domain protein (Millipore); purchased Millipore
T1 sequence (P36888 564-993 limits assumed): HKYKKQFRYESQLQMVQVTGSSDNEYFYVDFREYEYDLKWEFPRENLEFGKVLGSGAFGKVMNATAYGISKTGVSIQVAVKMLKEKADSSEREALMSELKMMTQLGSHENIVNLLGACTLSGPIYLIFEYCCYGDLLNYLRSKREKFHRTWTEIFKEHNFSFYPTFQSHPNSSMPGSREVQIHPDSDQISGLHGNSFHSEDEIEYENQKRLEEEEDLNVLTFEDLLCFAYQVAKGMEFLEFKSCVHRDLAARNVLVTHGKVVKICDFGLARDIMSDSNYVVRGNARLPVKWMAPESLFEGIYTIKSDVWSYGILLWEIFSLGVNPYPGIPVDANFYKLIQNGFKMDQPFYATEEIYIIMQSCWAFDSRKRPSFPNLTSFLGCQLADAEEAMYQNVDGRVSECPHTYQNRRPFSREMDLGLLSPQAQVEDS
Description: A test compound dissolved in dimethyl sulfoxide (DMSO) was diluted with a buffer (50 mM Tris-HCl (pH 7.5), 5 mM MgCl2, 5 mM MnCl2, 2 mM dithiothreitol, 0.01% Tween-20). To this compound solution (5 μL) was added a buffer (10 μL) containing 7.5 ng/ml of FLT3 intracellular domain protein (Millipore) and 250 ng/mL of biotin labeled polypeptide biotinyl-poly-Glu:Tyr (4:1) (CIS bio International). At 5 min after mixing kinase enzyme and the compound and biotin labeled polypeptide, to the obtained mixture was added a buffer (10 μL) containing ATP (5 μM), the mixture was allowed to react at 25° C. for 10 min and the reaction was quenched with 25 μL of a stop solution (100 mM EDTA disodium salt, 62.5 mM HEPES buffer (pH 7.4), 250 mM NaCl, 0.1% bovine serum albumin, 10 μg/mL AlphaScreen assay streptavidin donor beads (Streptavidin Donor Beads: PerkinElmer), 10 μg/mL AlphaScreen assay anti-phosphotyrosine recognition antibody Y-100 binding acceptor beads (Anti-phosphotyrosine (P-Tyr-100) Acceptor beads: PerkinElmer)). The reaction solution was allowed to stand at 25° C. for 16 hrs, and the wells were counted using a plate reader (Envision™ (PerkinElmer)). The kinase inhibitory rate (%) of the test compound was calculated by the following formula: Inhibitory rate (%)=(1−(count of test compound−blank)÷(control−blank))×100
(§2) The count of the solution reacted without addition of the compound was used as a “control”, and the count of the solution without the compound and ATP was used as a “blank”.

[4] = target: T2, Tie2 intracellular domain protein (Homo sapiens, UniProt Q02763); experiment: TIE2 kinase inhibitory activity (AlphaScreen); type: biochemical
T2 construct: 50 ng/mL of Tie2 intracellular domain protein (Millipore); purchased Millipore
Description: A test compound dissolved in dimethyl sulfoxide (DMSO) was diluted with a buffer (50 mM Tris-HCl (pH 7.5), 5 mM MgCl2, 5 mM MnCl2, 2 mM dithiothreitol, 0.01% Tween-20). A buffer (10 μL) containing 50 ng/mL of Tie2 intracellular domain protein (Millipore) and 250 ng/ml, of biotin labeled polypeptide biotinyl-poly-Glu:Tyr (4:1) (CIS bio International) was added to the compound solution (5 μL). At 5 min from the mixing of the kinase enzyme, the compound and the biotin labeled polypeptide, a buffer (10 μL) containing 5 μM ATP was added, and the mixture was reacted at 25° C. for 10 min. The reaction was quenched by the addition of 25 μL of a stop solution (100 mM EDTA disodium salt, 62.5 mM HEPES buffer (pH 7.4), 250 mM NaCl, 0.1% bovine serum albumin, 10 μg/ml AlphaScreen assay streptavidin donor beads (Streptavidin Donor beads: PerkinElmer), 10 μg/ml, AlphaScreen assay anti-phosphotyrosine recognition antibody PT-66 binding acceptor beads (Anti-phosphotyrosine (PT-66) Acceptor beads: PerkinElmer)). The reaction solution was allowed to stand at 25° C. for 16 hrs, and the […] were counted using a plate reader (Fusion™ (PerkinElmer)). The kinase inhibitory rate (%) of the test compound was calculated by the following formula: Inhibitory rate (%)=(1−(count of test compound−blank)÷(control−blank))×100
as §2

[5] = system: Human blood cell cancer cell line MV-4-11; experiment: Human blood cell cancer cell line MV-4-11 growth inhibitory test; type: cell-based; conditions: MV4-11, 72 h, culture for 3 days
Description: Human blood cell cancer cell line MV-4-11 (ATCC) was cultured in IMDM (Invitrogen) containing 10% bovine fetal serum in an incubator at 37° C., 5% CO2. MV-4-11 cells were treated with trypsin/EDTA and recovered. The cells were suspended in IMDM containing 10% bovine fetal serum, plated on a 96 well flat bottom plate at a cells density of 30,000 cells/50 μL per well. After culturing overnight, various concentrations of test substance were dissolved in IMDM containing 10% bovine fetal serum and added to each well by 50 μL. After culture for 3 days, a Cell counting kit-8 reagent (DOJINDO LABORATORIES) was added to each well by 10 μL, and reacted in an incubator at 37° C., 5% CO2 for 2-3 hr. After the reaction, the absorbance of each well at 450 nm was measured by a microtiter plate reader. The concentration of a test substance necessary for inhibiting the growth by 50% (IC50 value) was calculated using a cell proliferation rate with addition of the test substance at each concentration and according to the nonlinear regression analysis using GraphPad Prism [Sigmoidal dose response (variable slope)].

T2 sequence (Q02763 770-1124 limits assumed): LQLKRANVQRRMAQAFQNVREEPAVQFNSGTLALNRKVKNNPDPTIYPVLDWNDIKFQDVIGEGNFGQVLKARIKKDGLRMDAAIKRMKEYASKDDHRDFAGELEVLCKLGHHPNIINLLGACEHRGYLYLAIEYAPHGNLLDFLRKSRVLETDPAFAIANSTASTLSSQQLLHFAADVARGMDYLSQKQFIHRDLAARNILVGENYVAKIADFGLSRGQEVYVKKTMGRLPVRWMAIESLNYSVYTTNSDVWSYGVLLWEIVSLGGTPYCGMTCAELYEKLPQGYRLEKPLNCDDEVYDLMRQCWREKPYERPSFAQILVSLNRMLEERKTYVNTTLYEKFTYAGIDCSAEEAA

Cc1ccc(C(=O)Nc2ccc(Oc3ccc4nc(NC(=O)C5CC5)cn4c3)cn2)[n+]([O-])c1-c1ccc(F)cc1.Cl.O [Example 63, N-[5-({2-[(cyclopropylcarbonyl)amino]imidazo[1,2-a]pyridin-6-yl}oxy)pyridin-2-yl]-6-(4-fluorophenyl)-5-methylpyridine-2-carboxamide 1-oxide•hydrochloride•monohydrate]
tumor growth rate (%) (MKN-45 cells; MKN-45, dose 1 mg/kg): 24%
tumor growth rate (%) (MV-4-11 cells): <0%

Cc1ccc(C(=O)Nc2ccc(Oc3ccc4nc(NC(=O)C5CC5)cn4c3)c(F)c2)c(=O)n1-c1ccccc1 [Example 86, N-[4-({2-[(cyclopropylcarbonyl)amino]imidazo[1,2-a]pyridin-6-yl}oxy)-3-fluorophenyl]-6-methyl-2-oxo-1-phenyl-1,2-dihydropyridine-3-carboxamide acetate]
IC50 [1]: ≤ 2000 nM
IC50 ([2]; read-out: IC50 value): ≤ 1000 nM
inhibition at 1 µM ([2]; read-out: inhibitory rate (%) at 1 μM, 1 μM test substance, culture for 3 days): ≥ 80%
IC50 [3]: ≤ 1000 nM
IC50 [4]: ≤ 1000 nM
inhibition at 1 µM ([5]; 1 μM test substance, read-out: inhibitory rate (%) at 1 μM): ≥ 90%
IC50 [5]: ≤ 1000 nM

Cc1ccc(C(=O)Nc2ccc(Oc3ccc4nc(NC(=O)C5CC5)cn4c3)c(F)c2)c(=O)n1-c1ccccc1.Cc1ccc(S(=O)(=O)O)cc1 [Example 87, N-[4-({2-[(cyclopropylcarbonyl)amino]imidazo[1,2-a]pyridin-6-yl}oxy)-3-fluorophenyl]-6-methyl-2-oxo-1-phenyl-1,2-dihydropyridine-3-carboxamide p-toluenesulfonate]
tumor growth rate (%) (MKN-45 cells; MKN-45, dose 2 mg/kg): 17%
tumor growth rate (%) (MV-4-11 cells): <0%

Cl.O=C(Nc1cn2cc(Oc3ccc(NC(=O)C4(C(=O)Nc5ccccc5)CC4)cc3F)ccc2n1)C1CC1 [Example 15, N-[4-({2-[(cyclopropylcarbonyl)amino]imidazo[1,2-a]pyridin-6-yl}oxy)-3-fluorophenyl]-N′-phenylcyclopropane-1,1-dicarboxamide hydrochloride]
tumor growth rate (%) (MKN-45 cells; MKN-45, dose 2 mg/kg): 85%
tumor growth rate (%) (MV-4-11 cells): 17%

Cc1ccc(C(=O)Nc2ccc(Oc3ccc4nc(NC(=O)C5CC5)cn4c3)c(F)c2)c(=O)n1-c1ccccc1.Cl [Example 88, N-[4-({2-[(cyclopropylcarbonyl)amino]imidazo[1,2-a]pyridin-6-yl}oxy)-3-fluorophenyl]-6-methyl-2-oxo-1-phenyl-1,2-dihydropyridine-3-carboxamide hydrochloride]
tumor growth rate (%) (MKN-45 cells; MKN-45, dose 2 mg/kg): 17%
tumor growth rate (%) (MV-4-11 cells): <0%
